Several values for one entry are separate records, joined by “and”; a condition that tells them apart may be missing. Identical values can stand only once.
test: In vitro enzyme assay to detect hydrolysis of chlorophenol red-beta-D-[…] directly proportional to the number of Toxoplasma stably expressing beta-galactosidase; format: functional, organism-based, Toxoplasma gondii; conditions: not given

Compound	pIC50
COC[C@H]1CCC[C@]12CN(Cc1cccc(C)n1)CCO2	4.382
Cc1ccc(CN2Cc3nnn(C)c3C(COCc3ccccc3)C2)s1.O=C(O)C(F)(F)F (stereo not drawn)	4.987
O=C(c1ccc(-c2ccc(O)nc2)s1)N1CCSCC1	4.349
CCN1C[C@H]2CCN(C(=O)NC)CC[C@H]2S1(=O)=O	4.337
COc1ccc(C(=O)N(CCO)Cc2ccccc2)c(OC)n1	< 4.3
N#Cc1c(Cl)nsc1NCc1cccnc1OC1CCCC1	5.095
Cc1cccc(OCc2ccc(C(=O)N3N=CCC3(O)C(F)(F)F)o2)c1 (stereo not drawn)	5.353
CCc1ccc(NC(=O)C(C)Nc2cccc3c2OCCO3)cc1 (stereo not drawn)	5.373 and 4.972

same assay, conditions: Toxoplasma gondii

Compound	IC50
CS(=O)(=O)Nc1nn(Cc2ccc(F)cc2)cc1Br	> 50.1 µM
CCC(=O)c1cccc(OC)n1	> 50.1 µM
O=C(N1CCOCC1)[C@@]12CCO[C@@H]1CCN(C1CCC1)C2	> 50.1 µM
CCn1nc(C)c2nc(C(C)C)nc(NCCCn3ccnc3)c21	> 50.1 µM
Cc1nn(C)c(C)c1CNC(=O)c1cc(NC(=O)C2CC2)n(C)n1	> 50.1 µM
COC[C@H]1CCC[C@]12CN(Cc1cccc(C)n1)CCO2	> 50.1 µM
Cc1ccc(CN2Cc3nnn(C)c3C(COCc3ccccc3)C2)s1.O=C(O)C(F)(F)F (stereo not drawn)	7.69 µM
O=C(c1ccc(-c2ccc(O)nc2)s1)N1CCSCC1	36.8 µM
O=C(CCNC(=O)c1ccccc1F)Nc1nccs1	> 50.1 µM
Cc1ccc(CN(C)C(=O)Cn2cnnn2)o1	> 50.1 µM
Cc1nn(C)c2c(N(C)Cc3ccco3)nc(C3CC3)nc12	11.8 µM
NC1CCCCNC1=O (stereo not drawn)	> 50.1 µM
CCOc1ccc(C(=O)N2CCC(N)CC2)cc1	> 50.1 µM
O=C(CC(F)(F)F)NC1CCN(CC2CC2)C1 (stereo not drawn)	> 50.1 µM
Cc1ocnc1CNC(=O)c1ccon1	> 50.1 µM
CCCc1nc(NCCCOC)c2c(n1)c(C)nn2CC	34 µM
Cc1ccc(CN2CCCn3c(nc(Cn4ccnc4)cc3=O)C2)o1	> 50.1 µM
Cc1ccc(C(=O)NCCCNCCCN(C)C)cn1	> 50.1 µM
CCC(C)(CC(=O)OC)NCc1cc(C)on1 (stereo not drawn)	> 50.1 µM
O=C(N1CCCC1)N1C[C@H]2CCC[C@@]2(COCc2ccccn2)C1	> 50.1 µM
O=C(CN1CCCc2cc(F)cc(F)c21)Nc1ccc(Br)cn1	30.4 µM
O=C(c1cccnc1)c1ncc[nH]1	> 50.1 µM

Compound	IC50
NCCc1cc(-c2ccncc2)[nH]n1	> 50.1 µM
CN(C)c1cc(CNC(=O)c2nccnc2N)ccn1	> 50.1 µM
COc1ccc(C(=O)Nc2c(C(=O)N(C)C)nn(C)c2C)cc1	> 50.1 µM
Cc1ccnc(NC(=O)N(C)Cc2ccncc2)c1	> 50.1 µM
CC(C)COCCC(=O)Nc1nccs1	> 50.1 µM
CCN1C[C@H]2CCN(C(=O)NC)CC[C@H]2S1(=O)=O	> 50.1 µM
CNC(=O)NC(=O)CCN1CCCC(C)C1 (stereo not drawn)	> 50.1 µM
c1cnc(-c2nn3c(CN4CCCCC4)nnc3s2)cn1	> 50.1 µM
c1nc(N2CCNCC2)c2sccc2n1	> 50.1 µM
CCc1nc(C(C)(C)N)[nH]c(=O)c1C	> 50.1 µM
OC(CNC1CCSCC1)c1cccc(OCc2ccccc2)c1 (stereo not drawn)	17.2 µM
COC(=O)c1ccc(NS(=O)(=O)c2cnc(NC(C)=O)s2)cc1	> 50.1 µM
CCC1=NC(SCC(=O)c2ccc(C)cc2)c2cc(CC)sc2N1 (stereo not drawn)	> 50.1 µM
CCn1c(NCc2cccnc2)nc2c(C)nn(C)c2c1=O	> 50.1 µM
Cc1nn(C)c2c(=O)n(C(C)C)c(NCCc3ccccc3)nc12	36.1 µM
NCCN1CCC(C(N)=O)CC1	> 50.1 µM
Cc1c(S(=O)(=O)NC2CC2)cc2c(C)cc(=O)n3c2c1CCC3	48.5 µM
Cc1cc(C(=O)NCc2ccco2)nn1C	> 50.1 µM
Cc1nn(C)c2c(=O)n(Cc3ccc(Cl)cc3)nnc12	> 50.1 µM
CC(=O)Nc1ncc(S(=O)(=O)Nc2cccc(C)c2)s1	> 50.1 µM
Cn1cc(CN(C(=O)c2ccc(N)nc2)C2CC2)cn1	> 50.1 µM
CN(C(=O)NCCCN1CCCC1)C1CCN(c2ccccc2)C1=O (stereo not drawn)	> 50.1 µM

Compound	IC50
CO[C@H]1CC[C@H]2[C@H]1OCCN2Cc1ccc(F)c(F)c1	> 50.1 µM
CC(C)NC(=O)C1CN(C(=O)CCc2ccccc2)CC12CCOCC2 (stereo not drawn)	> 50.1 µM
NC1CCN(Cc2ccccc2)C1=O (stereo not drawn)	> 50.1 µM
N#Cc1ccnc(SCC(=O)Nc2ccncc2)c1	> 50.1 µM
CCOc1ccc2ccccc2c1CNCC1CCNCC1	6.4 µM
CCN(CC)CCNc1nc(C(C)C)nc2c(C)nn(CC)c12	> 50.1 µM
CC(NCC(=O)Nc1ccc(N2CCCCCC2)cc1)c1cccs1 (stereo not drawn)	19.9 µM
O=C(C[C@@H]1COC[C@H]2CN(Cc3ccncc3)C[C@@H]12)N1CCCC1	> 50.1 µM
COCc1nn(CC(=O)c2cc(F)ccc2F)c(=O)o1	> 50.1 µM
Nc1cccnc1NCc1cccnc1	> 50.1 µM
O=C(N[C@H]1COC[C@@H]1N1CCCCC1)c1cnc[nH]1	> 50.1 µM
Cc1nnc(SCCNC(=O)CC2C=CS(=O)(=O)C2)s1 (stereo not drawn)	> 50.1 µM
CCc1nnc(Nc2cc(C)nc(C3CN(C(=O)C(C)C)CCO3)c2)s1 (stereo not drawn)	> 50.1 µM
COc1ccc(C(=O)N(CCO)Cc2ccccc2)c(OC)n1	29.2 µM
CCC(CC)(CCO)CNC(=O)c1cncc(C)c1	> 50.1 µM
CC(=O)Nc1ncc(S(=O)(=O)Nc2ccccc2F)s1	31.2 µM
N#Cc1c(Cl)nsc1NCC1(c2ccccc2)CCC1	5.72 µM
CCn1c(SCC(=O)O)nnc1C(C)NC(=O)c1ccc(Cl)cc1 (stereo not drawn)	> 50.1 µM
O=C(OCCOc1cccnc1)C1CC1	> 50.1 µM
Cc1[nH]c2ccccc2c1-c1ccnc(N[C@@H](C)CO)n1	43.3 µM
CC(=O)Nc1ccc(CN2CCCOC(C)C2)cc1 (stereo not drawn)	> 50.1 µM
CNC(=O)[C@@H]1CSCN1c1ccc(C(F)(F)F)cn1	> 50.1 µM

Compound	IC50
N#Cc1c(Cl)nsc1NCc1cccnc1OC1CCCC1	6.71 µM
COC[C@@H]1CCC[C@@]12CN(Cc1ccc(C)s1)CCO2	> 50.1 µM
Cc1[nH]c2ccccc2c1-c1ccnc(N[C@@H](CO)C(C)C)n1	19.8 µM
CCc1nc(Nc2cccc(C(=O)NC)c2)c2c(n1)c(C)nn2CC	> 50.1 µM
Cn1ccc2ccc(NS(=O)(=O)C3CC3)cc2c1=O	> 50.1 µM
OC[C@@H]1CCCN1Cc1ccc(F)c2cccnc12	3.76 µM
Cc1cccc(OCc2ccc(C(=O)N3N=CCC3(O)C(F)(F)F)o2)c1 (stereo not drawn)	3.87 µM
O=C(NCCN1CCOCC1)c1cc(-c2ccc(Cl)s2)[nH]n1	5.29 µM
Cn1ncc(C(=O)N2CCN(CCS(C)(=O)=O)CC2)c1Cl	> 50.1 µM
CCN1CC2(CC1=O)CN(Cc1ccncc1)CCN(C(=O)C(C)C)C2 (stereo not drawn)	> 50.1 µM
CCc1cnc(N2CCCC(CCC(N)=O)C2)nc1 (stereo not drawn)	> 50.1 µM
COCc1nnc(-c2cccc(C(=O)N(C)CC(C)(C)C)c2)o1	> 50.1 µM
COC(=O)c1cnc(F)cn1	> 50.1 µM
COCCNc1cc(C)nn2cnnc12	> 50.1 µM
CCN1CCCC1CNCC(=O)N(C)C (stereo not drawn)	> 50.1 µM
CCNc1ccc(C(F)(F)F)cn1	> 50.1 µM
Nc1nc2c(c(NCc3nccs3)n1)CCN(CC1CCCC1)CC2	7.85 µM
COc1c(N)c(C)nn1C	> 50.1 µM
CCNc1ncc2c(n1)CN(c1cccc(OC)c1)C2=O	> 50.1 µM
Cc1cccc(CN2CCc3nnc(CN4CCCCC4)n3CC2)n1	> 50.1 µM
CNc1ncc(C(=O)N2CCCC(Cc3ccccc3OC)C2)s1 (stereo not drawn)	45.9 µM
Cc1c(CC(=O)N2CCN(C(C)C)CC2)nnn1-c1ccccc1	> 50.1 µM

Compound	IC50
Cn1cccc1C(=O)N1C[C@@H](OCc2ccncc2)[C@@H]2OCCC[C@@H]21	> 50.1 µM
CCc1cnc(CNC)s1	> 50.1 µM
CC(C)CNC(=O)CSc1n[nH]c(-c2ccccn2)n1	> 50.1 µM
Fc1ccccc1CN1CCn2ccnc2C1	> 50.1 µM
CS(=O)(=O)NCc1ccc(CN2CCCC2=O)cc1	> 50.1 µM
NCc1cccc(CN2CCCC2)c1	> 50.1 µM
O=C(NCc1nc(C2CC2)no1)Nc1nncs1	> 50.1 µM
Cn1ncc(C(=O)N2CCN(S(C)(=O)=O)CC2)c1Cl	> 25.1 µM
CC(C)c1cc(CN(C)C(=O)C(C)N2CCc3ccccc3C2)no1 (stereo not drawn)	> 50.1 µM
CC(C)S(=O)(=O)N1CCN(C(=O)c2cnn(C)c2Cl)CC1	> 50.1 µM
Cc1cc(CN2CCC3(CC2)COC(COc2ccccn2)C3)no1 (stereo not drawn)	> 50.1 µM
Cc1cc(C(=O)Nc2ccc3c(c2)CC(=O)N3)c(C)o1	> 50.1 µM
O=C1NCCN(C(=O)c2ccc(Br)o2)C1c1cccs1 (stereo not drawn)	> 50.1 µM
Cc1ccc(CNC(=O)C2CCCCC(=O)N2)o1 (stereo not drawn)	> 50.1 µM
CC(=O)Nc1ncc(S(=O)(=O)Nc2ccc(C)cc2)s1	> 50.1 µM
CCn1c(SCC(N)=O)nnc1C(C)NC(=O)c1ccc(Cl)cc1 (stereo not drawn)	> 50.1 µM
CC(C)c1ocnc1C(=O)Nc1cccc(Cn2ccccc2=O)c1	> 50.1 µM
Fc1cnc(N2CCO[C@H]3CN(CC4CCCCC4)C[C@H]32)nc1	> 50.1 µM
Cc1nccn1CCNc1cc(C2CC(O)C2)ncn1 (stereo not drawn)	> 50.1 µM
CCOCC(C)OC(=O)c1ccnn1C (stereo not drawn)	> 50.1 µM
CC(C)=CCN1CCOC(Cn2nc(C)cc2C)C1 (stereo not drawn)	> 50.1 µM
CNC(=O)CCN1CC(Oc2ccc(C)cc2)C1	> 50.1 µM
